Measured values published in PMC9705314, “Characterization of a new potent and long-lasting single chain peptide agonist of RXFP1 in cells and in vivo translational models” (Scientific Reports, 2022).
*1 amine or outer side, *2 acyl side, *3 side chain or, on linkers, in order; H or OH if unused. Where a SMILES comes first, the peptide text is derived from it. Side-chain parts run from the residue outwards. [ ]: non-standard residue; d: D form. The star is where a group is joined. γGlu = O=C(O)[C@H](CCC(=O)[*:2])N[*:1]; Stearoyl = CCCCCCCCCCCCCCCCCC(=O)*; Nle = CCCC[C@H](N)C(=O)O; AEEA = NCCOCCOCC(=O)O; Aib = CC(C)(N)C(=O)O

Molecular target: T1, RXFP1 (Homo sapiens, UniProt Q9HBX9)
T1 sequence (Q9HBX9 1-757): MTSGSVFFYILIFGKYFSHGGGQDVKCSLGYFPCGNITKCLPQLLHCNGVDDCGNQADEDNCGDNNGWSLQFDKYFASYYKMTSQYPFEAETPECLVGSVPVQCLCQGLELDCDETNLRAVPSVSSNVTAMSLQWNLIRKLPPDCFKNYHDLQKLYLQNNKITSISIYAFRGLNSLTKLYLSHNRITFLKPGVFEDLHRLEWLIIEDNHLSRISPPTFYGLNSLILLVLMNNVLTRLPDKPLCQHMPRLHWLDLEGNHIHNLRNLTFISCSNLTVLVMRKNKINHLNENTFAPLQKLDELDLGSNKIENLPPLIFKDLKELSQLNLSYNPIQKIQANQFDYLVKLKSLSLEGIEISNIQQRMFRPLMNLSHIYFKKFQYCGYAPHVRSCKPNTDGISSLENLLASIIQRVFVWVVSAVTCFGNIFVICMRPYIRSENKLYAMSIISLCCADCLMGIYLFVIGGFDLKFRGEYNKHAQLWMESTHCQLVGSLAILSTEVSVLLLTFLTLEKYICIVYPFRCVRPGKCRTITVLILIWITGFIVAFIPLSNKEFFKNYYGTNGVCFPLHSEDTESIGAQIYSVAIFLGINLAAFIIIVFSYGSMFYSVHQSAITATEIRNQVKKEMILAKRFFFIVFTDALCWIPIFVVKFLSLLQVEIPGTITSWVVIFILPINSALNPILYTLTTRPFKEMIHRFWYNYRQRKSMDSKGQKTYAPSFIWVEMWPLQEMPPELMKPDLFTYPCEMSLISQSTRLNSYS
Assay: Phospho-VASP (Ser157) MSD assay in EA.hy926_RXFP1 cells
Format: cell-based
Parameters: expressed in transfected cells; host or cells: EA.hy926 (ATCC CRL-2922), lentiviral transduction, puromycin selection
Details: serum-free DMEM, 20 min 37 °C, n = 3, read-out: EC50 [CI95%] VASP phosphorylation on S157
Description: These experiments were conducted according to the MSD protocol (K151FFD-2) and using a Sector 2400 from Mesoscale Discovery. In order to reduce the basal phosphorylation activity of VASP protein, EA.hy926_RXFP1 cells were stimulated with effector solutions in basal DMEM (i.e., without serum). Cells were plated in 96-well plate at a density of 35.000 cells/well overnight in a volume of 200µL of cell culture media. Prior to stimulation, growth medium was discarded, and the cells were washed one time with basal DMEM medium, before being incubated for 4 h with basal DMEM medium at 37 °C in 5% CO2. […] For control cells, 50µL of basal DMEM medium without effector standard solution were added onto the cells. The microplates were incubated for 20 min at 37 °C in 5% CO2. All the following steps were carried-out on ice. Medium was aspirated and the cells were directly lysed by addition of 50μL of complete lysis buffer/well (lysis buffer is provided in the pVASP assay kit and prepared according to MSD instructions). The microplates were placed for 60 min under orbital agitation. The cell lysates were collected in round bottom microplate then stored at − 80 °C until pVASP content determination according to MSD protocol.

EC50: 0.19 nM
Structure (SMILES): CCCCCCCCCCCCCCCCCC(=O)N[C@@H](CCC(=O)N[C@@H](CCC(=O)N[C@@H](CCC(=O)NCCOCCOCC(=O)NCCOCCOCC(=O)NCCOCCOCC(=O)NCCCC[C@H](NC(=O)[C@H](CCCCNC(C)=O)NC(=O)[C@H](CCCCN)NC(=O)[C@H](CCCNC(=N)N)NC(=O)C(C)(C)NC(=O)[C@H](CO)NC(=O)[C@H](Cc1c[nH]c2ccccc12)NC(=O)[C@@H](NC(=O)[C@H](CO)NC(=O)[C@H](CCCC)NC(=O)CNC(=O)[C@H](CCC(=O)O)NC(=O)C(C)(C)NC(=O)C(C)(C)NC(=O)[C@@H](NC(=O)[C@H](CCCCNC(C)=O)NC(=O)[C@H](C)NC(=O)[C@H](CCCNC(=N)N)NC(=O)[C@@H](NC(=O)[C@H](CCCCN)NC(=O)[C@H](CCC(=O)O)NC(=O)[C@H](CCCNC(=N)N)NC(=O)CNC(=O)[C@H](CCC(=O)O)NC(=O)[C@H](CC(C)C)NC(C)=O)C(C)C)[C@@H](C)CC)[C@@H](C)O)C(N)=O)C(=O)O)C(=O)O)C(=O)O [SA10SC-RLX] (Ac-LEGREKVRAK(Ac)I[Aib][Aib]EG[Nle]STWS[Aib]RKK(Ac)K([AEEA-AEEA-AEEA-γGlu-γGlu-γGlu-Stearoyl])-NH2)
